Results reported in US20240228555A9, “ANTIMICROBIAL PEPTIDOMIMETICS” (Basilea Pharmaceutica International AG, Allschwil, priority 2020, published 2024).
Where a SMILES comes first, the peptide text is derived from it.

Key:
[1] = tested on: human red blood cells (hRBC); type: cell-based; conditions: red cells of human, 1 h, 0.2 g/L
Method in brief: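 Percent lysis was derived from supernatant absorbance at 540 nm relative to full lysis by 2.5% Triton X-100 (PBS defines 0%). Compounds, 200 μg/mL, were exposed for 1 h at 37° C to a 20% (v/v) suspension of washed human red cells.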

[2] = tested on: Escherichia coli MCR-1 Af 45; conditions: Mueller-Hinton broth II, no visible growth after 18-20 hours at 35° C.
Method in brief: (§1)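 First, bacterial colonies are suspended in saline and adjusted to 0.5 McFarland. Next, the suspension is diluted into cation-adjusted Mueller-Hinton II broth (approx. 5×10^5 CFU/mL). Finally, it is added to two-fold serially diluted peptide, with polysorbate 80 at 0.002% final.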

[3] = tested on: Escherichia coli ATCC 25922; conditions: ATCC 25922
Method in brief: as §1

[4] = tested on: Klebsiella pneumoniae SSI3010; conditions: SSI3010
Method in brief: as §1

| SMILES | Hemolysis at 0.2 g/L [1] [%] | Escherichia coli MCR-1 Af 45 MIC [2] [µg/mL] | Escherichia coli ATCC 25922 MIC [3] [µg/mL] | Klebsiella pneumoniae SSI3010 MIC [4] [µg/mL] |
| --- | --- | --- | --- | --- |
| CC[C@H](C)[C@H](NC(=O)[C@@H]1C[C@@H](N)CN1C(=O)[C@@H](N)C(C)C)C(=O)N[C@H](C(=O)N[C@@H](Cc1ccc(O)cc1)C(=O)N[C@@H]1C(=O)N[C@@H](CC(N)=O)C(=O)N[C@@H](CCCNC(=N)N)C(=O)N[C@@H](CCN)C(=O)N[C@@H]([C@@H](C)O)C(=O)N[C@H](CCN)C(=O)N[C@@H](CCCCN)C(=O)N[C@H](C(=O)N[C@@H](CO)C(=O)N[C@@H](CCCNC(=N)N)C(=O)N[C@@H](Cc2ccc(O)cc2)C(=O)O)CSSC1(C)C)[C@@H](C)O [Example 110, Val-Pro((4R)NH2)-Ile-Thr-Tyr-Pen-Asn-Arg-Dab-Thr-^DDab-Lys-Cys-Ser-Arg-Tyr] (HELM PEPTIDE1{V.[N[C@@H]1C[C@@H](C(=O)[*:2])N([*:1])C1].I.T.Y.[Pen].N.R.[Dab].T.[NCC[C@@H](N[*:1])C(=O)[*:2]].K.C.S.R.Y}$PEPTIDE1,PEPTIDE1,6:R3-13:R3$$$V2.0) | <1 | 0.125 | 0.5 | 0.5 |
| CC[C@H](C)[C@H](NC(=O)[C@@H](NC(=O)[C@@H]1C[C@@H](O)CN1C(=O)[C@@H](N)C(C)C)[C@@H](C)CC)C(=O)N[C@@H](Cc1ccc(O)cc1)C(=O)N[C@@H]1C(=O)N[C@@H](CC(N)=O)C(=O)N[C@@H](CCCNC(=N)N)C(=O)N[C@@H](CCN)C(=O)N[C@@H]([C@@H](C)O)C(=O)N[C@H](CCN)C(=O)N[C@@H](CCCNC(N)=O)C(=O)N[C@H](C(=O)N[C@@H](CCN)C(=O)N[C@@H](CCCNC(=N)N)C(=O)N[C@@H](Cc2ccc(O)cc2)C(=O)O)CSSC1(C)C [Example 98, Val-Hyp-Ile-Ile-Tyr-Pen-Asn-Arg-Dab-Thr-^DDab-Cit-Cys-Dab-Arg-Tyr] (HELM PEPTIDE1{V.[Hyp].I.I.Y.[Pen].N.R.[Dab].T.[NCC[C@@H](N[*:1])C(=O)[*:2]].[Cit].C.[Dab].R.Y}$PEPTIDE1,PEPTIDE1,6:R3-13:R3$$$V2.0) | <1 | 0.25 | 0.25 | 0.5 |
| CC[C@H](C)[C@H](NC(=O)[C@@H](NC(=O)[C@@H]1C[C@@H](N)CN1C(=O)[C@@H](N)C(C)C)[C@@H](C)CC)C(=O)N[C@@H](Cc1ccc(O)cc1)C(=O)N[C@@H]1C(=O)N[C@@H](CC(N)=O)C(=O)N[C@@H](CCCNC(=N)N)C(=O)N[C@@H](CCN)C(=O)N[C@@H]([C@@H](C)O)C(=O)N[C@H](CCN)C(=O)N[C@@H](CCCNC(N)=O)C(=O)N[C@H](C(=O)N[C@@H](CCN)C(=O)N[C@@H](CO)C(=O)N[C@@H](Cc2ccc(O)cc2)C(=O)O)CSSC1(C)C [Example 106, Val-Pro((4R)NH2)-Ile-Ile-Tyr-Pen-Asn-Arg-Dab-Thr-^DDab-Cit-Cys-Dab-Ser-Tyr] (HELM PEPTIDE1{V.[N[C@@H]1C[C@@H](C(=O)[*:2])N([*:1])C1].I.I.Y.[Pen].N.R.[Dab].T.[NCC[C@@H](N[*:1])C(=O)[*:2]].[Cit].C.[Dab].S.Y}$PEPTIDE1,PEPTIDE1,6:R3-13:R3$$$V2.0) | <1 | 0.25 | 0.25 | 0.25 |
